Publication PMC7037732, “Synthesis of Combretastatin A-4 and 3′-Aminocombretastatin A-4 derivatives with Aminoacid Containing Pendants and Study of their Interaction with Tubulin and as Downregulators of the VEGF, hTERT and c-Myc Gene Expression” (Molecules, 2020)

Columns and labels:
c-Myc gene = c-Myc gene expression by RT-qPCR in HT-29 cells; assay type: cell-based, human; conditions: HT-29, 48 h; for mrna remaining at 0.0015 µM: 1.5 nM; for mrna remaining at 0.015 µM: 15 nM
Protocol: (§1) The effect on the expression of VEGF, hTERT and c-Myc genes has been studied for CA-4 and its derivatives that show selectivity indexes higher than 0.9 on the HT-29 cell line. The studied derivatives, together with the concentrations to which they have been tested, are CA-4 (15 μM); 4.1 (Gly, 5 μM); 4.5 (L-Pro, 25 μM); 4.9 (L-Met, 25 μM); 6.2 (D-Leu, 25 μM); 6.3 (D-Phe, 25 μM); 6.4 (D-Pro, 25 μM) and 6.5 (D-Ser, 10 μM). The expression of the genes was determined by RT-qPCR methodology, as described in the Materials and Methods section.
(§2) As regards AmCA-4 derivatives, the effect on the expression of the VEGF, hTERT and c-Myc genes has been studied on those that show IC50 in the low nanomolar range on the HT-29 cell line and/or on compounds whose selectivity indexes with respect to this cell line are higher than 1. The studied compounds, together with the concentrations to which they have been tested, are: CA-4 (15 μM), AmCA-4 (15 nM), 7.1 (7 nM), 7.2 (1.5 nM), 7.3 (4 nM), 7.4 (15 nM), 7.5 (2 nM), 7.7 (7 nM), 7.8 (15 nM), 7.9 (30 nM), 8.1 (7 nM), 8.2 (3 nM), 8.3 (10 nM), 8.4 (1.5 nM), 8.5 (4 nM), 8.7 (7 nM), 8.8 (3 nM) and 8.9 (4 nM).
(§3) HT-29 cells at 70–80% confluence were collected, and 1.5 × 10^5 cells were placed in a six-well plate in 1.5 mL of the medium. After 24 h, cells were incubated with the corresponding compounds for 48 h. Cells were collected, and the total cellular RNA from the HT-29 cells was isolated using an Ambion RNA Extraction Kit, according to the manufacturer’s instructions. The cDNA was synthesized by MMLV-RT with […] of extracted RNA and oligo(dT)15, according to the manufacturer’s instructions. Genes were amplified by a thermal cycler and StepOnePlus™ TaqMan® probes. TaqMan® Gene Expression Master Mix Fast, containing the appropriate buffer for the amplification conditions, dNTPs, thermostable DNA polymerase enzyme and a passive reference probe, was used. To amplify each of the genes, the predesigned primers sold by Life Technologies TaqMan® Gene Expression Assays Hs99999903-m1 (β-actin), Hs00900055-m1 (VEGF), Hs00972646-m1 (hTERT) and Hs00153408-m1 (c-Myc) were used.

hTERT gene = hTERT gene expression by RT-qPCR in HT-29 cells; assay type: cell-based, human; conditions: Homo sapiens, HT-29, 48 h, control 100; for mrna remaining at 0.0015 µM: 1.5 nM; for mrna remaining at 0.015 µM: 15 nM
Protocol: as §1, §2, §3

purified tubulin = test: Critical concentration (CrC) for the assembly of purified tubulin in GAB; assay type: biochemical; conditions: compound 27.5 μM, tubulin 25 μM, glycerol (GAB) and GTP assembly buffer; control 7.9 ± 1.2
Protocol: The effect on the self-assembly of tubulin was determined by measuring the critical concentration (CrC).

A-549 cells = test: Cell cycle distribution by flow cytometry; assay type: cell-based, human; conditions: A-549, 24 h, 0.5 µM
Protocol: The effects of some CA-4 derivatives on the cell cycle were evaluated in A-549 cells.
The effects of some AmCA-4 derivatives on the cell cycle were also evaluated in A-549 cells.
The supernatant and trypsinated cells were harvested and then centrifuged (1200 rpm, 5 min, 4 °C). The cell pellet was resuspended in 1 mL of cold 70% ethanol for 30 min at −20 °C. Cells were centrifuged (2000 rpm, 5 min, 4 °C) to remove ethanol, and then the cell pellet was resuspended in the staining mix containing 50 µg/mL propidium iodide (Molecular Probes, France) and 100 µg/mL RNAse A (Sigma, France) in PBS for 20 min at room temperature in darkness. Samples were analyzed on a Becton Dickinson FACScan flow cytometer using the CellQuest software, which was also used to determine the percentage of cells in the G2/M phases of the cell cycle. PI was excited at 488 nm, and fluorescence analyzed at 620 nm on channel Fl-2.

VEGF gene = VEGF gene expression by RT-qPCR in HT-29 cells; assay type: cell-based, human; conditions: HT-29, 48 h; for mrna remaining at 0.0015 µM: 1.5 nM; for mrna remaining at 0.015 µM: 15 nM
Protocol: as §1, §2, §3

[1] = system: A-549 (human pulmonary adenocarcinoma); test: Inhibition of cell proliferation (MTT), A-549; assay type: cell-based; conditions: Homo sapiens, A549, 48 h, Table 2; 48 h of treatment (footnote); average ±SD of three experiments
Excerpt: (§4) The ability of the synthetic compounds to inhibit cell proliferation was established by means of their IC50 values towards the tumor cell lines HT-29 (human colon adenocarcinoma), MCF-7 (breast adenocarcinoma) and A-549 (human pulmonary adenocarcinoma), as well as towards the nontumor cell line HEK-293 (human embryonic kidney cells). Results for compounds derived from CA-4 are presented in Table 1, along with the calculated selectivity indexes SIA (for HT-29 cell line), SIB (for MCF-7 cell line) and SIc (for A-549 cell line), obtained by dividing the IC50 values of the nontumor cell line (HEK-293) by those of the corresponding tumor cell line. The higher the SI index, the higher the therapeutic safety margin.
Cell culture media were purchased from Gibco (Grand Island, NY, USA). Fetal bovine serum (FBS) was a product of Harlan-Seralab (Belton, U.K.). Supplements and other chemicals not listed in this section were obtained from Sigma Chemical Co. (St. Louis, MO, USA). Plastics for cell culture were supplied by Thermo Fischer Scientific Inc., Madrid, Spain. All tested compounds were dissolved in DMSO at a concentration of 10 μg/mL and stored at −20 °C until use. HT-29, MCF-7, A-549 and HEK-293 cell lines were maintained in a Dulbecco’s modified Eagle’s medium (DMEM) containing glucose (1 g/L), glutamine (2 mM), penicillin (50 IU/mL), streptomycin (50 μg/mL) and amphotericin B (1.25 μg/mL), supplemented with 10% FBS. Cells from human non-small lung carcinoma (clone A549; ATCC n°: CCL2, MD, USA) were routinely grown at 37 °C in a humidified atmosphere of 5% CO2. Cells were maintained in a standard medium composed of RPMI 1640 (Lonza, Group Ltd., Basel, Switzerland), supplemented with 10% fetal bovine serum (FBS), 2 mM L-glutamine and 1% penicillin and streptomycin (Invitrogen). Cells were free from mycoplasma as determined by MycoAlert tests (Lonza, Group Ltd., Basel, Switzerland). […]

[2] = system: MCF-7 (breast adenocarcinoma); test: Inhibition of cell proliferation (MTT), MCF-7; assay type: cell-based, human; conditions: Table 2, 48 h of treatment (footnote), average ±SD of three experiments
Excerpt: as §4
(§5) Cell culture media were purchased from Gibco (Grand Island, NY, USA). Fetal bovine serum (FBS) was a product of Harlan-Seralab (Belton, U.K.). Supplements and other chemicals not listed in this section were obtained from Sigma Chemical Co. (St. Louis, MO, USA). Plastics for cell culture were supplied by Thermo Fischer Scientific Inc., Madrid, Spain. All tested compounds were dissolved in DMSO at a concentration of 10 μg/mL and stored at −20 °C until use. HT-29, MCF-7, A-549 and HEK-293 cell lines were maintained in a Dulbecco’s modified Eagle’s medium (DMEM) containing glucose (1 g/L), glutamine (2 mM), penicillin (50 IU/mL), streptomycin (50 μg/mL) and amphotericin B (1.25 μg/mL), supplemented with 10% FBS. Cells from human non-small lung carcinoma (clone A549; ATCC n°: CCL2, MD, USA) were routinely grown at 37 °C in a humidified atmosphere of 5% CO2. Cells were maintained in a standard medium composed of RPMI 1640 (Lonza, Group Ltd., Basel, Switzerland), supplemented with 10% fetal bovine serum (FBS), 2 mM L-glutamine and 1% penicillin and streptomycin (Invitrogen). Cells were free from mycoplasma as determined by MycoAlert tests (Lonza, Group Ltd., Basel, Switzerland).
(§6) A total of 5 × 10^3 HT-29, MCF-7 or HEK-293 cells in a total volume of 100 μL of their respective growth media were incubated with serial dilutions of the tested compounds. The 3-(4,5-dimethylthiazol-2-yl)-2,5-diphenyltetrazolium bromide (MTT; Sigma Chemical Co.) dye reduction assay in a 96-well microplate was used, as previously described. […] The resulting formazan was dissolved in 150 μL of 0.04 N HCl/2-propanol and read at 550 nm. All determinations were carried out in triplicate.

[3] = system: HT-29 (human colon adenocarcinoma); test: Inhibition of cell proliferation (MTT), HT-29; assay type: cell-based; conditions: Homo sapiens, HT-29, 48 h, Table 2; 48 h of treatment (footnote); average ±SD of three experiments
Excerpt: as §4, §5, §6

[4] = system: HEK-293 (human embryonic kidney cells); test: Inhibition of cell proliferation (MTT), nontumor HEK-293; assay type: cell-based; conditions: Table 2, 48 h of treatment (footnote), average ±SD of three experiments
Excerpt: as §4, §5, §6

tubulin = test: In vitro tubulin polymerization by turbidimetry (It50); assay type: biochemical; conditions: turbidimetry at 350 nm, 37 °C
Protocol: Figure 3 also includes polymerization curves in the presence of CA-4, AmCA-4 and paclitaxel. This test was also performed using paclitaxel, a microtubule stabilizing agent, as a control for the complete formation of microtubules (see Figure 3).

[5] = discussion, concentration per compound
[6] = Homo sapiens, 4 nM, control 100
[7] = Homo sapiens, 3 nM, control 100

SMILES	CrC (critical concentration) (purified tubulin) [µM]	G0/G1 (A-549 cells) [%]	G2/M (A-549 cells) [%]	S (A-549 cells) [%]	IC50 [1] [µM]	IC50 ([2]; Homo sapiens, MCF7, 48 h) [µM]	IC50 [3] [µM]	IC50 ([4]; Homo sapiens, HEK293, 48 h) [µM]	other results
COc1ccc(/C=C\c2cc(OC)c(OC)c(OC)c2)cc1NC(=O)[C@H](C)NC(=O)OCC1c2ccccc2-c2ccccc21 [Compound 7.2]	9.4 ± 0.3	28 ± 1	53 ± 2	19 ± 2	0.242 ± 0.013	–	–	–	downregulation of c-Myc gene expression (c-Myc gene; [5]): more than 60%; mrna remaining at 0.0015 µM (c-Myc gene; Homo sapiens, control 100): 22%; mrna remaining at 0.0015 µM (hTERT gene): 79%; downregulation of VEGF gene expression (VEGF gene; [5]): more than 60%; mrna remaining at 0.0015 µM (VEGF gene; Homo sapiens, control 100): 25%
COc1ccc(/C=C\c2cc(OC)c(OC)c(OC)c2)cc1NC(=O)[C@@H](NC(=O)OCC1c2ccccc2-c2ccccc21)C(C)C [Compound 7.3]	6.9 ± 0.3	–	–	–	0.87 ± 0.06	0.1 ± 0.05	0.13 ± 0.04	0.06 ± 0.02	mrna remaining at 0.004 µM (c-Myc gene; [6]): 63%; mrna remaining at 0.004 µM (hTERT gene; 4 nM): > 100%; mrna remaining at 0.004 µM (VEGF gene; [6]): 23%
COc1ccc(/C=C\c2cc(OC)c(OC)c(OC)c2)cc1NC(=O)[C@H](CC(C)C)NC(=O)OCC1c2ccccc2-c2ccccc21 [Compound 7.4]	9.9 ± 0.8	–	–	–	0.49 ± 0.013	0.009 ± 0.002	0.023 ± 0.01	0.014 ± 0.003	mrna remaining at 0.015 µM (c-Myc gene; Homo sapiens, control 100): 94%; mrna remaining at 0.015 µM (hTERT gene): 96%; mrna remaining at 0.015 µM (VEGF gene; Homo sapiens, control 100): 58%
COc1ccc(/C=C\c2cc(OC)c(OC)c(OC)c2)cc1NC(=O)[C@H](Cc1ccc(O)cc1)NC(=O)OCC1c2ccccc2-c2ccccc21 [Compound 7.8]	10.1 ± 1.1	–	–	–	8.9 ± 1.2	0.012 ± 0.002	0.018 ± 0.005	0.016 ± 0.002	mrna remaining at 0.015 µM (c-Myc gene; Homo sapiens, control 100): > 100%; mrna remaining at 0.015 µM (hTERT gene): 76%; mrna remaining at 0.015 µM (VEGF gene; Homo sapiens, control 100): 51%
COc1ccc(/C=C\c2cc(OC)c(OC)c(OC)c2)cc1NC(=O)[C@@H](N)CC(C)C [Compound 8.4]	8.3 ± 0.3	35 ± 1	48 ± 1	17 ± 2	0.167 ± 0.023	–	–	–	mrna remaining at 0.0015 µM (c-Myc gene; Homo sapiens, control 100): 48%; mrna remaining at 0.0015 µM (hTERT gene): 73%; mrna remaining at 0.0015 µM (VEGF gene; Homo sapiens, control 100): 67%
COc1ccc(/C=C\c2cc(OC)c(OC)c(OC)c2)cc1NC(=O)[C@@H](N)Cc1ccc(O)cc1 [Compound 8.8]	7.7 ± 0.8	30 ± 2	52 ± 3	18 ± 1	0.206 ± 0.02	< 0.005	–	< 0.005	mrna remaining at 0.003 µM (c-Myc gene; [7]): 42%; IC50 [2]: 0.0049 ± 0.0002 µM; mrna remaining at 0.003 µM (hTERT gene; 3 nM): 46%; mrna remaining at 0.003 µM (VEGF gene; [7]): 72%; IC50 [4]: 0.0027 ± 0.0014 µM
CC(=O)O[C@H]1C(=O)[C@@]2(C)[C@H]([C@H](OC(=O)c3ccccc3)[C@]3(O)C[C@H](OC(=O)[C@H](O)[C@@H](NC(=O)c4ccccc4)c4ccccc4)C(C)=C1C3(C)C)[C@]1(OC(C)=O)CO[C@@H]1C[C@@H]2O [Paclitaxel, paclitaxel, reference compound]	–	–	–	–	–	–	–	–	time to reach the plateau phase of polymerization (tubulin): 30 min; It50 (time required to reach 50% of the polymerization) (tubulin; control 16.6 ± 1.0): 3.2 ± 0.4 min; Effect on in vitro tubulin polymerization (tubulin; result in words): promotes tubulin polymerization
